From patent US11970435B2, “Taste-modified creatine salts, compounds, compositions and uses thereof” (Augusta University Research Institute, Inc., priority 2017, dated 2024)
Values joined by “and” are separate entries in the source; they are usually repeats but may differ in a detail not shown here. Equal entries are not always repeated. Structures can show the parent of a compound that is named as a salt.

Legend:
[1] = isolated product
[2] = Stability study: decomposition of creatine salts to creatinine in water, LC-MS/MS; assay type: physicochemical; details: for Creatinine, % / Salt, %: distilled water, 20° C.; for decomposition: at first, time intervals of 8 hours, water; for Formation of creatinine: deionized water, room temperature, period of 333 hours
Procedure: Mobile phase was 50% water and 50% acetonitrile with 0.1% formic acid in each. Column was a 2 mm×15 cm C18 column with 3 um particles. Flow rate 0.2 mL/min.
Samples were dissolved in distilled water and kept at 20° C. Mass spectrometry used a Waters Premier XE triple quadrupole mass spectrometer. Liquid chromatography used a Waters Acquity UPLC system.
Experiment was double checked with two simultaneous injections of each sample in various time intervals.

C[C@H](CCC(=O)NCCS(=O)(=O)O)[C@H]1CC[C@H]2[C@@H]3[C@H](O)C[C@@H]4C[C@H](O)CC[C@]4(C)[C@H]3C[C@H](O)[C@]12C [Salt 26, Amino((2-ethoxy-2-oxoethyl)(methyl)amino)methaniminium 2-((R)-4-((3R,5S, 7R, 8R,9S,10S,12S,13R,14S,17R)-3,7,12-trihydroxy-10,13-dimethylhexadecahydro-1H-cyclopenta[a]phenanthren-17-yl)pentanamido)ethane-1-sulfonate]
solubility in organic solvents and water [1]: readily soluble

Amino((carboxymethyl)(methyl)amino)methaniminium 6-methyl-4-oxo-4H-1,2,3-oxathiazin-3-ide 2,2-dioxide [Salt 21a]
Creatinine, % ([2]; 0 Hrs): 0.4% | Salt, % ([2]; 0 Hrs): 99.6% | Creatinine, % ([2]; 8 Hrs): 0.4% | Salt, % ([2]; 8 Hrs): 99.6% | Creatinine, % ([2]; 16 Hrs): 0.4% | Salt, % ([2]; 16 Hrs): 99.6% | Creatinine, % ([2]; 24 Hrs): 0.5% | Salt, % ([2]; 24 Hrs): 99.5% | Creatinine, % ([2]; 32 Hrs): 0.5% and 0.4% | Salt, % ([2]; 32 Hrs): 99.5% and 99.6% | Creatinine, % ([2]; 40 Hrs): 0.5% | Salt, % ([2]; 40 Hrs): 99.5% | Creatinine, % ([2]; 48 Hrs): 0.5% | Salt, % ([2]; 48 Hrs): 99.5% | Creatinine, % ([2]; 56 Hrs): 0.5% | Salt, % ([2]; 56 Hrs): 99.5% | Creatinine, % ([2]; 64 Hrs): 0.5% | Salt, % ([2]; 64 Hrs): 99.5% | Creatinine, % ([2]; 72 Hrs): 0.5% | Salt, % ([2]; 72 Hrs): 99.5% | Creatinine, % ([2]; 138 Hrs): 0.6% | Salt, % ([2]; 138 Hrs): 99.4% | Creatinine, % ([2]; 166 Hrs): 0.7% | Salt, % ([2]; 166 Hrs): 99.3% | Creatinine, % ([2]; 190 Hrs): 0.7% | Salt, % ([2]; 190 Hrs): 99.3% | Creatinine, % ([2]; 214 Hrs): 0.8% and 0.7% | Salt, % ([2]; 214 Hrs): 99.2% and 99.3% | Creatinine, % ([2]; 240 Hrs): 0.8% | Salt, % ([2]; 240 Hrs): 99.2% | Creatinine, % ([2]; 287 Hrs): 0.9% | Salt, % ([2]; 287 Hrs): 99.1% | Creatinine, % ([2]; 310 Hrs): 0.9% | Salt, % ([2]; 310 Hrs): 99.1% | Creatinine, % ([2]; 333 Hrs): 1.0% | Salt, % ([2]; 333 Hrs): 99.0% | decomposition [2]: under 0.5% | Formation of creatinine [2]: ≤ 1%

CN(CC(=O)O)C(=N)N.Cl [Salt 4, creatine hydrochloride]
Creatinine, % ([2]; 0 Hrs, hydrochloride): 1.8% and 1.7% | Salt, % ([2]; 0 Hrs, hydrochloride): 98.2% and 98.3% | Creatinine, % ([2]; 8 Hrs): 2.5% | Salt, % ([2]; 8 Hrs): 97.5% | Creatinine, % ([2]; 16 Hrs): 2.4% | Salt, % ([2]; 16 Hrs): 97.6% | Creatinine, % ([2]; 24 Hrs): 2.5% | Salt, % ([2]; 24 Hrs): 97.5% | Creatinine, % ([2]; 32 Hrs, hydrochloride): 2.4% and 2.5% | Salt, % ([2]; 32 Hrs, hydrochloride): 97.6% and 97.5% | Creatinine, % ([2]; 40 Hrs, hydrochloride): 2.4% and 2.5% | Salt, % ([2]; 40 Hrs, hydrochloride): 97.6% and 97.5% | Creatinine, % ([2]; 48 Hrs): 2.5% | Salt, % ([2]; 48 Hrs): 97.5% | Creatinine, % ([2]; 56 Hrs, hydrochloride): 2.5% and 2.4% | Salt, % ([2]; 56 Hrs, hydrochloride): 97.5% and 97.6% | Creatinine, % ([2]; 64 Hrs): 2.5% | Salt, % ([2]; 64 Hrs): 97.5% | Creatinine, % ([2]; 72 Hrs, hydrochloride): 2.5% and 2.6% | Salt, % ([2]; 72 Hrs, hydrochloride): 97.5% and 97.4% | Creatinine, % ([2]; 138 Hrs, hydrochloride): 3.0% and 2.8% | Salt, % ([2]; 138 Hrs, hydrochloride): 97.0% and 97.2% | Creatinine, % ([2]; 166 Hrs): 3.0% | Salt, % ([2]; 166 Hrs): 97.0% | Creatinine, % ([2]; 190 Hrs): 3.0% | Salt, % ([2]; 190 Hrs): 97.0% | Creatinine, % ([2]; 214 Hrs, hydrochloride): 3.1% and 3.3% | Salt, % ([2]; 214 Hrs, hydrochloride): 96.9% and 96.7% | Creatinine, % ([2]; 240 Hrs, hydrochloride): 3.0% and 3.3% | Salt, % ([2]; 240 Hrs, hydrochloride): 97.0% and 96.7% | Creatinine, % ([2]; 287 Hrs, hydrochloride): 3.2% and 3.5% | Salt, % ([2]; 287 Hrs, hydrochloride): 96.8% and 96.5% | Creatinine, % ([2]; 310 Hrs, hydrochloride): 3.3% and 3.6% | Salt, % ([2]; 310 Hrs, hydrochloride): 96.7% and 96.4% | Creatinine, % ([2]; 333 Hrs, hydrochloride): 3.6% and 3.5% | Salt, % ([2]; 333 Hrs, hydrochloride): 96.4% and 96.5% | decomposition [2]: < 2.5% | Formation of creatinine [2]: ≤ 3.6%
